# In ChEMBL document CHEMBL1133054, “Noncovalent thrombin inhibitors incorporating an imidazolylethynyl P1” (Bioorg Med Chem Lett, 2000):
# Legend:
# [1] = Peak plasma concentration (Cmax) was determined; type: ADME, organism-based; conditions: rat
# Prothrombin = Prothrombin (Homo sapiens, UniProt P00734); experiment: In vitro inhibition of human thrombin.
# Serine protease 1 = biological target: T1, Serine protease 1 (Bos taurus, UniProt P00760); experiment: Inhibitory activity against Bovine Trypsin
# T1 sequence (P00760 whole entry): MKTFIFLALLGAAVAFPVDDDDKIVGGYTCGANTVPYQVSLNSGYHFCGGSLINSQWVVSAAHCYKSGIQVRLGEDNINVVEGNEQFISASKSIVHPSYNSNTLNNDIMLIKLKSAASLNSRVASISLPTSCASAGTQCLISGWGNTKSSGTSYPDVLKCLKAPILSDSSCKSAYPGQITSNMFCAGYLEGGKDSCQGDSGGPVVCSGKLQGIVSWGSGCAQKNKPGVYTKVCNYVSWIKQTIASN
# Rattus norvegicus = experiment: Oral bioavailability; type: ADME, organism-based; conditions: in vivo
# [2] = Area under curve (AUC) at a dose of […] mg/kg in rats; type: ADME, organism-based; conditions: rat, in vivo, 30 mg/kg
# [3] = Peak plasma concentration (Cmax) in rats; type: ADME, organism-based; conditions: rat
# [4] = Maximum time (Tmax) required to reach Cmax in rats; type: ADME, organism-based; conditions: rat, in vivo
# [5] = Plasma Clearance was determined; type: ADME, organism-based; conditions: rat
# [6] = Bioavailability; type: ADME, organism-based; conditions: eutheria, in vivo
# [7] = Area under curve at a dose of 30 mg/kg; type: ADME, organism-based; design: dose 30 mg/kg; conditions: rat, in vivo
# [8] = Area under curve at a dose of 10 mg/kg; type: ADME, organism-based; design: dose 10 mg/kg; conditions: in vivo
# [9] = Half life (t1/2) was determined; type: ADME, organism-based; conditions: rat, in vivo
Ki (Prothrombin),Ki (Serine protease 1),Compound,other results
0.044 µM,47 µM,O=C(O)CN[C@@H](C(=O)N1CCC[C@H]1C(=O)NCC#Cc1cnc[nH]1)C(c1ccccc1)c1ccccc1,Cmax [1]: 1600 nM
0.208 µM,,CC(=O)N[C@@H](C(=O)N1CCC[C@H]1C(=O)NCC#Cc1cnc[nH]1)C(c1ccccc1)c1ccccc1,Cmax [1]: 1600 nM
0.029 µM,30 µM,CC(C)(C)OC(=O)N[C@@H](C(=O)N1CCC[C@H]1C(=O)NCC#Cc1cnc[nH]1)C(C1CCCCC1)C1CCCCC1,
0.0026 µM,14 µM,CS(=O)(=O)N[C@@H](C(=O)N1CCC[C@H]1C(=O)NCC#Cc1c[nH]cn1)C(c1ccccc1)c1ccccc1,
0.48 µM,,O=C(O)CN[C@H](CC1CCCCC1)C(=O)N1CCC[C@H]1C(=O)NCC#Cc1cnc[nH]1,Cmax [1]: 1600 nM
> 20 µM,,CC(C)(C)OC(=O)N[C@H](Cc1ccccc1)C(=O)N1CCC[C@H]1C(=O)NCC#Cc1ccncc1,
,33 µM,CN(C(=O)[C@H](Cc1ccc(C(=N)NN)cc1)NS(=O)(=O)c1ccc2ccccc2c1)C1CCCC1,
> 20 µM,,CC(C)(C)OC(=O)N[C@H](Cc1ccccc1)C(=O)N1CCC[C@H]1C(=O)NCC#Cc1ccc(N)nc1,
5.5 µM,,Cn1cncc1C#CCNC(=O)[C@@H]1CCCN1C(=O)[C@@H](Cc1ccccc1)NC(=O)OC(C)(C)C,
,,NC1CCC(CNC(=O)[C@@H]2CCCN2C(=O)[C@H](NS(=O)(=O)Cc2ccccc2)C(c2ccccc2)c2ccccc2)CC1 (stereo not given in full),F (Rattus norvegicus): Oral bioavailability
,50 µM,CC(C)(C)OC(=O)N[C@@H](C(=O)N1CCC[C@H]1C(=O)NCC#Cc1c[nH]cn1)C(c1ccccc1)c1ccccc1,AUC [2]: 29 µM·h; Cmax [3]: 14600 nM; Tmax [4]: 1 h
,,NC1CCC(CNC(=O)[C@@H]2CCCN2C(=O)[C@H](N)C(c2ccccc2)c2ccccc2)CC1 (stereo not given in full),F (Rattus norvegicus): Oral bioavailability
0.015 µM,30 µM,COC(=O)N[C@@H](C(=O)N1CCC[C@H]1C(=O)NCC#Cc1c[nH]cn1)C(C1CCCCC1)C1CCCCC1,
0.012 µM,25 µM,N[C@@H](C(=O)N1CCC[C@H]1C(=O)NCC#Cc1cnc[nH]1)C(c1ccccc1)c1ccccc1,
0.014 µM,24 µM,COC(=O)N[C@@H](C(=O)N1CCC[C@H]1C(=O)NCC#Cc1c[nH]cn1)C(c1ccccc1)c1ccccc1,clearance [5]: 12.8 mL/min/kg; bioavailability [6]: 58%; AUC [7]: 46 µM·h; Cmax [1]: 23600 nM; AUC [8]: 26 µM·h; Tmax [4]: 1 h; half-life [9]: 0.667 h
5.4 µM,,CC(C)(C)OC(=O)N[C@H](Cc1ccccc1)C(=O)N1CCC[C@H]1C(=O)NCC#Cc1cn[nH]c1,
1.2 µM,,CC(C)(C)OC(=O)N[C@H](Cc1ccccc1)C(=O)N1CCC[C@H]1C(=O)NCC#Cc1cnc[nH]1,

Compound,Ki (Prothrombin),Ki (Serine protease 1),other results
NS(=O)(=O)N[C@@H](C(=O)N1CCC[C@H]1C(=O)NCC#Cc1c[nH]cn1)C(c1ccccc1)c1ccccc1,0.0008 µM,18 µM,
O=C(NCC#Cc1cnc[nH]1)[C@@H]1CCCN1C(=O)[C@H](NS(=O)(=O)Cc1ccccc1)C(c1ccccc1)c1ccccc1,0.003 µM,24 µM,
